Experimental data from paper PMC9570967 (Molecules, 2022).
Entries after “also recorded” stand apart in the source; their conditions may differ.

Legend:
[1] = test system: squirrel monkeys; assay: Respiratory depression: ventilatory response to hypercapnia (5% CO2 in air); assay type: in vivo, squirrel monkeys (Saimiri sciureus); settings: ratio of minute volumes in 5% CO2 and room air, cumulative dosing
Method: Ventilation measures were assessed as described previously. Briefly, squirrel monkeys were acclimated to a customized acrylic chamber (10″ d × 10″ w × 10″ h) that served as a whole-body plethysmograph (EMKA Technologies, Montreal, PQ, Canada). Gas (either air or a 5% CO2 in air mixture) was introduced to and extracted from the chamber at a constant flow rate of 5 L/min. Experimental sessions consisted of 4–6 consecutive 30 min cycles, each comprising a 20 min exposure to air followed by a 10 min exposure to 5% CO2. Drug effects were determined using cumulative dosing procedures, and injections were administered following each exposure to 5% CO2. Respiratory rate and tidal volume (mL/breath) were recorded over 1 min periods and were multiplied to provide minute volumes. Data from the last three minutes of each exposure to air or CO2 were averaged and used for analysis of drug effects on ventilation.
(§1) All statistical analyses and graphic representations were completed with GraphPad Prism version 9.3.0 (GraphPad Software, San Diego, CA, USA) using log transformed values of doses. Group means ± SEM tail withdrawal latencies (in sec) and minute volume ratios are plotted as a function of drug dose. Data were analyzed using One-way ANOVA with significance set at p < 0.05, followed by Dunnett’s multiple comparison test.

[2] = molecular target: T1, human κ-opioid receptor (OPRK1) (Homo sapiens, UniProt P41145); assay: cell-based
T1 sequence (P41145 whole entry): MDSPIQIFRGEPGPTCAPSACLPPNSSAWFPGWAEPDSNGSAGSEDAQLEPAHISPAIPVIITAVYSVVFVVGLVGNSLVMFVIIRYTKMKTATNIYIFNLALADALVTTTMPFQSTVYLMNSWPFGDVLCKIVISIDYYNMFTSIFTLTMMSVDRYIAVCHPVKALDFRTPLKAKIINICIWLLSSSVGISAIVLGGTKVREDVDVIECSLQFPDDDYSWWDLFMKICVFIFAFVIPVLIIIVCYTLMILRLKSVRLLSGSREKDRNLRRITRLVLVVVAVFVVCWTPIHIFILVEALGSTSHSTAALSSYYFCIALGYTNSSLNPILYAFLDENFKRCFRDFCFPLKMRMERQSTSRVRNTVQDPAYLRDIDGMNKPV

[3] = molecular target: T2, mouse mu opioid receptor (Mus musculus, UniProt P42866); assay: [35S]GTPγS functional assay (mMOR-CHO membranes); assay type: biochemical; settings: for EC50: mMOR-CHO membranes, read-out: GTPgS EC50; for Emax: read-out: GTPgS % Emax of (DAMGO)
T2 construct: expressed in transfected cells; host or cells: CHO (mMOR-CHO), membrane homogenates
T2 sequence (P42866 whole entry): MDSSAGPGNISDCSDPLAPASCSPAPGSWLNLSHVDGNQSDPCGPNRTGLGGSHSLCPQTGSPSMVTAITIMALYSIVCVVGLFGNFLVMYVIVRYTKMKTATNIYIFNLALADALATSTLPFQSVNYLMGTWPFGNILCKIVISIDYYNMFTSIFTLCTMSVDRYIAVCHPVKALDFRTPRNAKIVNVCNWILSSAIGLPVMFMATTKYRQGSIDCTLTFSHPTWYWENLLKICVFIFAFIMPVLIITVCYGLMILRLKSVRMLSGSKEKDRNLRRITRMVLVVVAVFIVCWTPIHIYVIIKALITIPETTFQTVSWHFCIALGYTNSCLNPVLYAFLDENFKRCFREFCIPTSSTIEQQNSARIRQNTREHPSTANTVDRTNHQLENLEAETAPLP

[4] = molecular target: T1, human κ-opioid receptor (OPRK1); settings: versus EC90 of U50488H; normalized to nor-BNI
[5] = molecular target: T1, human κ-opioid receptor (OPRK1); assay: cell-based; remark: listed apart in the source
[6] = molecular target: T3, human δ-opioid receptor (OPRD1) (Homo sapiens, UniProt P41143); assay: Forskolin-induced cAMP accumulation assay, DOR agonist mode; settings: for Emax: CHO-K1, read-out: DOR Agonist %Emax ± SEM
T3 sequence (P41143 whole entry): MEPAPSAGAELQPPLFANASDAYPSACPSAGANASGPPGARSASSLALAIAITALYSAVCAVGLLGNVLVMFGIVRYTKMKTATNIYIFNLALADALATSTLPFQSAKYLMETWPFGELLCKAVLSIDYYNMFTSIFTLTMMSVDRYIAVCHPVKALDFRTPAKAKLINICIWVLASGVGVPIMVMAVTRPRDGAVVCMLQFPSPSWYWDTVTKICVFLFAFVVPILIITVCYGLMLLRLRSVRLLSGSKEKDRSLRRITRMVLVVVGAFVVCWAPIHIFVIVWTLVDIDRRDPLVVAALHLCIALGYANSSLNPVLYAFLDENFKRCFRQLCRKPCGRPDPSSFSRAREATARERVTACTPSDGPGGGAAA

[7] = molecular target: T2, mouse mu opioid receptor; assay: Competition radioligand binding assay ([3H]naloxone, mMOR-CHO membranes); settings: 1.4 nM [3H]naloxone, read-out: [3H]NLX Binding Ki
Method: In vitro binding assays were performed using monocloned mouse mu opioid receptor expressing Chinese hamster ovary (CHO) cells (mMOR-CHO). mMOR-CHO cell culture and membrane homogenate preparation were performed as previously described. All assays were duplicated and repeated at least three times.
Competition binding assays were performed as previously described. […] Bound radioactive ligand was isolated by filtration through GF/B glass fiber filters and rinsed three times with ice-cold wash buffer (50 mM Tris-HCl, pH 7.2). Bound radioactivity was determined via liquid scintillation ounting. […] The IC50 values were determined by nonlinear regression analysis using GraphPad Prism 9 (GraphPad Software, San Diego, CA, USA) and converted to Ki values using the Cheng–Prusoff equation.

[8] = test system: squirrel monkeys; assay: Antinociception: warm-water tail-withdrawal; assay type: in vivo, squirrel monkeys (Saimiri sciureus); settings: 52 °C water, cumulative dosing
Method: Male squirrel monkeys (Saimiri sciureus) were housed in a climate-controlled vivarium with a 12 h light/dark cycle (7 AM–7 PM) in the McLean Hospital Animal Care Facility (licensed by the U.S. Department of Agriculture and compliant with guidelines provided by the Committee on Care and Use of Laboratory Animals of the Institute of Laboratory Animals Resources, Commission on Life Sciences, National Research Council; 2011). Tail withdrawal latencies were assessed as described previously. Briefly, monkeys were seated in customized Plexiglas chairs that allowed their tails to hang freely. Tail withdrawal latencies were measured by immersing the subject’s tail in water held at 35 or 52 °C (temperatures were presented in a randomized order during successive test components). After obtaining a baseline tail withdrawal latency, complete dose response curves were generated in each subject using standard cumulative dosing procedures. Briefly, every 15 min after an injection tail-withdrawal latencies at each temperature were redetermined and subjects were injected with the next dose, such that the total (cumulative) dose was increased by ½ log10 units in each successive cycle. This procedure was repeated until either (a) the tail-withdrawal latency from 52 °C water reached the maximum allowable latency (10 sec), or (b) tail-withdrawal latency no longer increased with increases in dose of the test drug.
as §1

[9] = molecular target: T3, human δ-opioid receptor (OPRD1); assay: Forskolin-induced cAMP accumulation assay, DOR antagonist mode; settings: for DOR Antagonist %Imax ± SEM: versus EC50 of SNC80, normalized to naltrexone

C=C[C@H]1[C@H]2CCC[C@]1(c1cccc(O)c1)CCN2CCc1ccccc1 [Compound 8, 3-((1R,5S,9R)-2-Phenethyl-9-vinyl-2-azabicyclo [3.3.1]nonan-5-yl)phenol] was tested, and the “Effect on ventilatory ratio (respiratory depression)” value (“Effect on ventilatory ratio” for short) [1] was “reduced the ability of 5% CO2 to stimulate increases in ventilation; also recorded: morphine-like respiratory depressant effects”, the IC50 [2] was 74 ± 30.5 nM and the EC50 [3] was 6.73 ± 1.35 nM. For the same compound, the Emax [3] was 20.1 ± 0.78%, the “KOR Antagonist %Imax ± SEM” value [4] was 97.1 ± 9.2% and the EC50 [5] was greater than 10000 nM. The EC50 [6] was greater than 10000 nM, the Ki [7] was 0.5 ± 0.05 nM and the “Effect on tail withdrawal latency (antinociception)” value (from here on “Effect on tail withdrawal latency”) [8] was “significantly increased tail withdrawal latency; also recorded: had antinociceptive effects”. For the same compound, the IC50 [9] was 113 ± 43.6 nM and the “DOR Antagonist %Imax ± SEM” value [9] was 119.1 ± 15.5%.
C=C[C@@H]1[C@H]2CCC[C@]1(c1cccc(O)c1)CCN2CCc1ccccc1 [Compound 9, 3-((1R,5S,9S)-2-Phenethyl-9-vinyl-2-azabicyclo [3.3.1]nonan-5-yl)phenol] was tested, and the “Effect on ventilatory ratio” value [1] was “did not alter ventilation; also recorded: did not produce morphine-like decreases in ventilatory ratio”, the IC50 [2] was 19.8 ± 9.7 nM and the EC50 [3] was 37 ± 15.5 nM. The Emax [3] was 10.5 ± 0.82%, the “KOR Antagonist %Imax ± SEM” value [4] was 101.8 ± 19.1% and the EC50 [5] was greater than 10000 nM. For the same compound, the EC50 [6] was 57 ± 21.4 nM, the Emax [6] was 22.6% and the Ki [7] was 1.91 ± 0.13 nM. For the same compound, the “Effect on tail withdrawal latency” value [8] was “inconsistent effect of tail withdrawal latency; also recorded: antinociceptive effects in some, but not all subjects”.
C=C[C@H]1[C@@H]2CCC[C@@]1(c1cccc(OC)c1)CCN2CCc1ccccc1 [Compound 13, (1S,5R,9R)-5-(3-Methoxyphenyl)-2-phenethyl-9-vinyl-2-azabicyclo [3.3.1]nonane] showed an IC50 [2] greater than 10000 nM, an EC50 [5] greater than 10000 nM and an EC50 [6] greater than 10000 nM. It also gave an IC50 [9] greater than 10000 nM.
C=C[C@@H]1[C@@H]2CCC[C@@]1(c1cccc(O)c1)CCN2CCc1ccccc1 [Compound 14, 3-((1S,5R,9S)-2-Phenethyl-9-vinyl-2-azabicyclo [3.3.1]nonan-5-yl)phenol] was tested, and the IC50 [2] was 128 ± 48.2 nM, the “KOR Antagonist %Imax ± SEM” value [4] was 105.6 ± 4.6% and the EC50 [5] was greater than 10000 nM. For the same compound, the EC50 [6] was 122 ± 47.2 nM and the Emax [6] was 40.6%.
For C=C[C@H]1[C@@H]2CCC[C@@]1(c1cccc(O)c1)CCN2CCc1ccccc1 [Compound 15, 3-((1S,5R,9R)-2-Phenethyl-9-vinyl-2-azabicyclo [3.3.1]nonan-5-yl)phenol], the IC50 [2] was 28.4 ± 4.2 nM, the “KOR Antagonist %Imax ± SEM” value [4] was 104.9 ± 11.2% and the EC50 [5] was greater than 10000 nM. The EC50 [6] was greater than 10000 nM, the IC50 [9] was 144 ± 41 nM and the “DOR Antagonist %Imax ± SEM” value [9] was 201.4 ± 35.9%.
For C/C=C\[C@H]1[C@H]2CCC[C@]1(c1cccc(O)c1)CCN2CCc1ccccc1 [Compound 17, 3-((1R,5S,9R)-2-Phenethyl-9-((Z)-prop-1-en-1-yl)-2-azabicyclo [3.3.1]nonan-5-yl)phenol], the “Effect on ventilatory ratio” value [1] was “without significantly altering ventilation; also recorded: limited effects on ventilatory ratio”, the IC50 [2] was 35 ± 9.7 nM and the EC50 [3] was 9.64 ± 1.7 nM. For the same compound, the Emax [3] was 18 ± 1.45%, the “KOR Antagonist %Imax ± SEM” value [4] was 111.6 ± 7.9% and the EC50 [5] was greater than 10000 nM. The EC50 [6] was greater than 10000 nM, the Ki [7] was 1.83 ± 0.24 nM and the “Effect on tail withdrawal latency” value [8] was “increased tail withdrawal latency; also recorded: consistent and significant antinociceptive effects”. For the same compound, the IC50 [9] was 113 ± 19.8 nM and the “DOR Antagonist %Imax ± SEM” value [9] was 143.3 ± 11.9%.
C/C=C\[C@@H]1[C@H]2CCC[C@]1(c1cccc(O)c1)CCN2CCc1ccccc1 [Compound 18, 3-((1R,5S,9S)-2-Phenethyl-9-((Z)-prop-1-en-1-yl)-2-azabicyclo [3.3.1]nonan-5-yl)phenol] gave an IC50 [2] of 238 ± 52.6 nM, an EC50 [3] of 8.38 ± 0.77 nM and an Emax [3] of 75.3 ± 3.83%. The “KOR Antagonist %Imax ± SEM” value [4] was 114.8 ± 11.2%, the EC50 [5] was greater than 10000 nM and the EC50 [6] was 9.69 ± 2.23 nM. For the same compound, the Emax [6] was 74.5% and the Ki [7] was 0.56 ± 0.07 nM.
C/C=C\[C@H]1[C@@H]2CCC[C@@]1(c1cccc(O)c1)CCN2CCc1ccccc1 [Compound 20, 3-((1S,5R,9R)-2-Phenethyl-9-((Z)-prop-1-en-1-yl)-2-azabicyclo [3.3.1]nonan-5-yl)phenol] was tested, and the IC50 [2] was 4.02 ± 0.25 nM, the “KOR Antagonist %Imax ± SEM” value [4] was 126.7 ± 2.6% and the EC50 [5] was greater than 10000 nM. The EC50 [6] was greater than 10000 nM, the IC50 [9] was 7.52 ± 2.93 nM and the “DOR Antagonist %Imax ± SEM” value [9] was 142.5 ± 23.7%.
In the case of C/C=C\[C@@H]1[C@@H]2CCC[C@@]1(c1cccc(O)c1)CCN2CCc1ccccc1 [Compound 21, 3-((1S,5R,9S)-2-Phenethyl-9-((Z)-prop-1-en-1-yl)-2-azabicyclo [3.3.1]nonan-5-yl)phenol], the IC50 [2] is reported as 163 ± 37 nM, the “KOR Antagonist %Imax ± SEM” value [4] is reported as 111.8 ± 2.2% and the EC50 [5] is reported as greater than 10000 nM. It also gave an EC50 [6] of 60.5 ± 3.7 nM and an Emax [6] of 66.7%.
For CC/C=C\[C@H]1[C@H]2CCC[C@]1(c1cccc(O)c1)CCN2CCc1ccccc1 [Compound 23, 3-((1R,5S,9R)-9-((Z)-But-1-en-1-yl)-2-phenethyl-2-azabicyclo [3.3.1]nonan-5-yl)phenol], the IC50 [2] was 328 ± 96.9 nM, the “KOR Antagonist %Imax ± SEM” value [4] was 109.5 ± 8.3% and the EC50 [5] was greater than 10000 nM. The EC50 [6] was greater than 10000 nM, the IC50 [9] was 69 ± 4.8 nM and the “DOR Antagonist %Imax ± SEM” value [9] was 166.6 ± 40.0%.
With CC/C=C\[C@@H]1[C@H]2CCC[C@]1(c1cccc(O)c1)CCN2CCc1ccccc1 [Compound 24, 3-((1R,5S,9S)-9-((Z)-But-1-en-1-yl)-2-phenethyl-2-azabicyclo [3.3.1]nonan-5-yl)phenol] the IC50 [2] was 283 ± 46.4 nM, the “KOR Antagonist %Imax ± SEM” value [4] was 103.8 ± 9.2% and the EC50 [5] was greater than 10000 nM. The EC50 [6] was greater than 10000 nM, the IC50 [9] was 3220 ± 572 nM and the “DOR Antagonist %Imax ± SEM” value [9] was 182.3 ± 56.4%.
For CC/C=C\[C@@H]1[C@@H]2CCC[C@@]1(c1cccc(O)c1)CCN2CCc1ccccc1 [Compound 26, 3-((1S,5R,9S)-9-((Z)-But-1-en-1-yl)-2-phenethyl-2-azabicyclo [3.3.1]nonan-5-yl)phenol], the IC50 [2] was 12.2 ± 2.5 nM, the “KOR Antagonist %Imax ± SEM” value [4] was 96.2 ± 0.9% and the EC50 [5] was greater than 10000 nM. For the same compound, the EC50 [6] was greater than 10000 nM, the IC50 [9] was 520 ± 144 nM and the “DOR Antagonist %Imax ± SEM” value [9] was 226.1 ± 14.0%.
With CC/C=C\[C@H]1[C@@H]2CCC[C@@]1(c1cccc(O)c1)CCN2CCc1ccccc1 [Compound 27, 3-((1S,5R,9R)-9-((Z)-But-1-en-1-yl)-2-phenethyl-2-azabicyclo [3.3.1]nonan-5-yl)phenol] the IC50 [2] was 0.79 ± 0.28 nM, the “KOR Antagonist %Imax ± SEM” value [4] was 98.2 ± 2.3% and the EC50 [5] was greater than 10000 nM. For the same compound, the EC50 [6] was greater than 10000 nM, the IC50 [9] was 8.22 ± 2.44 nM and the “DOR Antagonist %Imax ± SEM” value [9] was 211.5 ± 24.7%.
With CN1CC[C@]23c4c5ccc(O)c4O[C@H]2[C@@H](O)C=C[C@H]3[C@H]1C5 [Morphine, reference compound] the “Effect on tail withdrawal latency” value [8] was “significantly increased tail withdrawal latency”.
